# How the values were obtained:
# [1] = in humans; cited from earlier work
# [2] = Simulated gastrointestinal digestion (oral, gastric, intestinal); bioaccessible fraction; format: in vitro ADME; settings: after simulated digestion
# Experimental: Gastrointestinal digestion of the samples was simulated adopting the method described by Minekus et al., 2014, Food & Function, 5(6), 1113-1124. Gastrointestinal digestion consisted of a sequential oral, gastric and intestinal digestion. Simulated salivary fluid (SSF), simulated gastric fluid (SGF) and simulated intestinal fluid (SIF) were prepared using a method reported previously (Minekus et al., 2014). […] The experiments were performed in 50 mL Erlenmeyer flasks. All digestion experiments were carried out in triplicate.
# First, the sample (0.25 g) and SSF electrolyte stock solution (3.5 mL) were added into the flask. Then, 0.5 mL of α-amylase solution (750 U/mL) was included to have a final mixture with 75 U/mL. Subsequently, 25 μL of 0.3 M CaCl2 and 0.975 mL of deionized water were added. Finally, pH of the mixture was adjusted to pH 7.0 and the mixture was agitated in a shaking water bath (Precision SWB 27, Thermo Fisher Scientific, NH, USA) for 30 sec at 37° C. with a mixing rate of 150 rpm (Mennah-Govela & Bornhorst, 2016; Minekus et al., 2014).
# After the oral digestion, oral bolus (5 mL) was mixed with SGF electrolyte stock solution (3.25 mL, pH 3.0) and the pH was adjusted to 3.0 using 1 M HCl (75 μL). […] The pH of the mixture was monitored and kept at pH 3.0 using 1 M HCl. […]
# [3] = Solubility of curcumin in ethanol; format: physicochemical
# Experimental: Impregnation of curcumin was conducted during the solvent exchange step. Excess curcumin was mixed with ethanol at room temperature (21° C.) and the undissolved curcumin was removed by filtration through a 0.45 μm pore-size filter. […] Afterwards, curcumin impregnated alcogels were dried using the same SC-CO2 drying conditions. Moreover, curcumin impregnation was investigated at 60° C., where higher solubility of curcumin in ethanol was obtained. Curcumin impregnated NSAs were called CUR-NSA-60° C. or CUR-NSA-RT depending on the impregnation temperature of 60° C. or room temperature (RT), respectively. Curcumin impregnated NSAs were stored in the freezer at −18° C. until characterized.
# Impregnation capacity of the Curcumin-NSA-RT, where impregnation was performed at room temperature (21° C.), was 14.4 mg curcumin/g NSA (FIG. 5). When temperature of the impregnation increased to 60° C. […] Impregnation capacity was basically based on the solubility of curcumin in ethanol. […] The reason for a drastic increase in the impregnation capacity at 60° C. was the crystallization of curcumin in the saturated ethanolic curcumin solution on the surface of the NSA due to temperature drop to 40° C. during SC-CO2 drying. Crystallization from ethanol before the supercritical conditions reached led to the formation of long curcumin crystals (data not shown) which impacted the bioaccessibility of curcumin after simulated digestion (FIG. 10).
# [4] = Plasma CUR concentration over time after administration (bioavailability in rats); format: in vivo; settings: rat, 0-90 minutes after administration, read-out: maximum concentration of CUR in the plasma (Cmax)
# From the text: FIG. 12 depicts the bioavailability of curcumin (CUR) impregnated in the nanoporous starch aerogels in rats as analyzed in Example 2.
# The plasma CUR concentration was monitored over time after administration.
# [5] = 10 MPa and 40° C.; cited from earlier work
smiles,measurement,setting,value
"COc1cc(/C=C/C(=O)CC(=O)/C=C/c2ccc(O)c(OC)c2)ccc1O [crude curcumin, Curcumin (diferuloylmethane)]",bioavailability,[1],~1%
same,concentration of curcumin in the bioaccessible fraction,[2],3000 ng/mL
same,increase in the solubility of curcumin in ethanol,[3]; 21 to 60° C.,3.9 fold
same,solubility of curcumin in ethanol,[3]; 21° C.,4.4±0.2 mg curcumin/mL ethanol
same,solubility of curcumin in ethanol,[3]; 60° C.,17.2±0.3 mg curcumin/mL ethanol
same,Cmax,[4],500 nM
same,solubility of curcumin in SC-CO2,[5],~0.4 ng/mL

# — patent US11654119B2, “Bioavailable curcumin nanoparticles and methods of making” (NUtech Ventures, priority 2018, dated 2023)
